Article PMC7549214 (Malaria Journal, 2020)
Read-outs that look alike come from different tables or passages of the source.

Columns and labels:
[1] = Single dose pharmacokinetics in Balb/C mice; type: in vivo; conditions: normal Balb/C mice; for half-life / AUC(0-t) / Cmax / Tmax: male, mouse, plasma; for half-life: BALB/c, 50 mg/kg
Description: Female […] mice (n = 3) aged 7-8 weeks and weighing around 20 to 22 g were used for experimentation after a minimum 7 days of acclimation. Male BALB/c mice (n = 3) aged 8-10 weeks and weighing around 20 to 22 g were also used for experimentation after a minimum 7 days of acclimation. […] Feed was offered 2 h post-dose. Under mild isofluorane […], blood samples were collected by retro-orbital route into labelled centrifuge tubes containing K2EDTA anticoagulant at a concentration of 2 mg/mL of blood during the next 24 h post-dose. Collected blood samples were centrifuged at 4000 rpm for 10 min, and harvested plasma samples were stored at - 80 °C until analysis.

Microsomal stability [2] = type: in vitro ADME, rat; conditions: RLM, Test Conc. 10 µM
CYP 3A4 = CYP 3A4 (Homo sapiens, UniProt P08684); assay: CYP inhibition; type: in vitro ADME
[3] = test system: P. falciparum Pf3D7^0087/N9; assay: Therapeutic efficacy in SCID mouse model of human falciparum malaria; type: in vivo, Plasmodium falciparum in NODscidIL2Rγ^null mice; conditions: for Parasitaemia after 4 days of administration: intraperitoneally, vehicle control 8.43%; for Parasitaemia: oral, vehicle-treated group 7.69%, n = 2
Description: For the dose–response study, 50 mg of the compound was used in quintuplicate. Chloroquine (Sigma-Aldrich C6628) was used as the standard drug. The volume of 10 mL/kg was used for administration. Briefly, at day 0, in vitro cultures with approximately 2–5% parasitaemia were taken and diluted in culture medium to 2 × 10^7 parasitized erythrocytes per 0.1 ml. This suspension was injected iv into experimental groups and a control group of n = 2 mice. From day 3 to 6 days post-infection, the experimental groups were treated with a single daily dose by the oral (po) route. Other routes, such as intramuscular and subcutaneous, were also tested using the same protocol. The drug concentration was adjusted in a way to administer 10 ml/kg. […] At 7th day post-infection, 2 μl tail blood was taken. The haematocrit was determined by FACS and parasitaemia by microscopy on > 10,000 red blood cells.
The difference of the mean infection rate of the control group (= 100%) to the test group was calculated and expressed as per cent reduction. […] The results were expressed as a reduction of parasitaemia at day 7 in % as compared to the untreated control group. Values are expressed as mean ± SD.

CYP2C9 = CYP2C9 (Homo sapiens, UniProt P11712); assay: CYP inhibition; type: in vitro ADME; conditions: read-out: CYP inhibition IC50, CYP 2C9
male gametocytes = assay: Male gametocyte functional viability assay; type: cell-based; conditions: Plasmodium falciparum
Description: Gametocyte cultures were tested for functional viability and maturity after 14 days. Testing functional viability was done by quantifying male gametocyte formation, which was carried out by withdrawing 200 μl of culture. Following this, culture was centrifuged, and the pellet was resuspended in 5 μl ookinete medium (RPMI medium with 25 mM HEPES, 50 mg/l hypoxanthine, 2 g/l sodium bicarbonate, 100 μM xanthurenic acid, and 10% A^+ human serum). The culture was observed under a microscope. […] The plates were then incubated at 37 °C for 24 h. Gamete formation was induced on day 15 and observed under the microscope following the method described by Ruecker et al.. The assay was performed using four independent biological replicates.

Plasma protein binding [4] = type: in vitro ADME; conditions: monkey, read-out: Plasma protein binding (% bound)
Plasma protein binding [5] = type: in vitro ADME; conditions: mouse, read-out: Plasma protein binding (% bound)
[6] = test system: Plasmodium falciparum 3D7; assay: Plasmodium falciparum asexual blood-stage (ABS) assay; type: cell-based; conditions: Plasmodium falciparum, 3D7
Description: Plasmodium falciparum 3D7 strain was used for the P. falciparum asexual blood-stage (ABS) assay, for which the cells were resuscitated from the stabilate and maintained at 5% haematocrit. Red blood cells obtained from the hospital were used to maintain the culture at 1% parasitaemia while screening.
Plasmodium falciparum 3D7 cells were used as a target strain for the assay. Mefloquine (Sigma-Aldrich) was used as a standard inhibitor. At day 1, […] of 10 mM mefloquine was added to columns 12 and 24 of the sterile 384-well black, clear-bottom, cell culture assay plates followed by compound curves which were added using Echo. The P. falciparum 3D7 cells were counted and 20 ml of culture was prepared at 5% haematocrit, 0.3% parasitaemia (as one batch, i.e., 12 plates, prepare 260 ml, to allow for WellMate prime volume) for each plate. From this, 50 µl of culture was added to all wells on all plates using WellMate with small bore tubing on full (S-1) speed. The plates were placed on the bottom shelf of the incubator, with a maximum stack height of 4 plates, preferring the front of the shelf and were incubated for 72 h at 37 °C in an atmosphere of special gas mix (1% O2, 3% CO2, balance N2).
. Ten μl of the prepared buffer was added to each well on each of the assay plates and incubated overnight in the dark at room temperature. The plates were read on Victor plate reader using ‘384sybrgreen’ protocol (excitation 485 nm, emission 528 nm) after which the plate contents were aspirated into 5% Virkon, and disposed of after autoclaving. Percentage inhibition for each test compound was calculated using the following equation: %Inhibition=100-TEST COMPOUND-BLANK/NO INHIBITION-BLANK∗100)
EC50 values for standard inhibitors were determined using non-linear regression curve-fitting within Activity Base data analysis template.

Microsomal stability [7] = type: in vitro ADME, human; conditions: HLM, Test Conc. 10 µM
CYP1A2 = CYP1A2 (Homo sapiens, UniProt P05177); assay: CYP inhibition; type: in vitro ADME
in vitro = in vitro ADME; conditions: human, plasma
CYP 2D6 = CYP 2D6 (Homo sapiens, UniProt P10635); assay: CYP inhibition; type: in vitro ADME
[8] = test system: Dd2 DDD107498 (PfeEF2 Y186N); assay: microbe, parasite or virus in culture; type: cell-based; conditions: Plasmodium falciparum

Sequence of CYP2C9 (P11712 whole entry, species assumed): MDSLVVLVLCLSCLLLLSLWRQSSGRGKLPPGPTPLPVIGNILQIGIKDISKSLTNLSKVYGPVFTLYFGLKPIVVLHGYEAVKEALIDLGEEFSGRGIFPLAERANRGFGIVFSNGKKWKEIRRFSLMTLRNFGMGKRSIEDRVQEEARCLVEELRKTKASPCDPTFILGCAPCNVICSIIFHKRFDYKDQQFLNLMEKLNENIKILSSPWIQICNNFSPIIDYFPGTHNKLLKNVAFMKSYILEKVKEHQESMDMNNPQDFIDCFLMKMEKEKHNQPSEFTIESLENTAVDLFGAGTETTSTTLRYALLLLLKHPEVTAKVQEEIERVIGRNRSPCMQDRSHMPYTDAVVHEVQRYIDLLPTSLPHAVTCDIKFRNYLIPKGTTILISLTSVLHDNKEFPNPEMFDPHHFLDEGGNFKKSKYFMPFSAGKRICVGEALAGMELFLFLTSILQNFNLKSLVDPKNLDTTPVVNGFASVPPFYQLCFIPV
Sequence of CYP 3A4 (P08684 whole entry, species assumed): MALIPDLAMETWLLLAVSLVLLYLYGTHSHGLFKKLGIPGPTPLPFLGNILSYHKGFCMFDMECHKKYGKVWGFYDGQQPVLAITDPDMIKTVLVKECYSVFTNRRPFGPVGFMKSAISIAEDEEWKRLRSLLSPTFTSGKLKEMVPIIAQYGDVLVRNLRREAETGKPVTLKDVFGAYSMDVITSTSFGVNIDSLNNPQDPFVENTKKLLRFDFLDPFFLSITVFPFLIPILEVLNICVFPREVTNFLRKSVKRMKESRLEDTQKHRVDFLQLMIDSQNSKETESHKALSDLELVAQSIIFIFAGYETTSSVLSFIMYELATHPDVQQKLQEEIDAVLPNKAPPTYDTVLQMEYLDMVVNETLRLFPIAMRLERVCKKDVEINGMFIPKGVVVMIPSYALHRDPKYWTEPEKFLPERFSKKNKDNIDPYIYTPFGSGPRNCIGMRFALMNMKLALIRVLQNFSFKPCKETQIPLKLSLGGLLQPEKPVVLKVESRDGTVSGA
Sequence of CYP 2D6 (P10635 whole entry, species assumed): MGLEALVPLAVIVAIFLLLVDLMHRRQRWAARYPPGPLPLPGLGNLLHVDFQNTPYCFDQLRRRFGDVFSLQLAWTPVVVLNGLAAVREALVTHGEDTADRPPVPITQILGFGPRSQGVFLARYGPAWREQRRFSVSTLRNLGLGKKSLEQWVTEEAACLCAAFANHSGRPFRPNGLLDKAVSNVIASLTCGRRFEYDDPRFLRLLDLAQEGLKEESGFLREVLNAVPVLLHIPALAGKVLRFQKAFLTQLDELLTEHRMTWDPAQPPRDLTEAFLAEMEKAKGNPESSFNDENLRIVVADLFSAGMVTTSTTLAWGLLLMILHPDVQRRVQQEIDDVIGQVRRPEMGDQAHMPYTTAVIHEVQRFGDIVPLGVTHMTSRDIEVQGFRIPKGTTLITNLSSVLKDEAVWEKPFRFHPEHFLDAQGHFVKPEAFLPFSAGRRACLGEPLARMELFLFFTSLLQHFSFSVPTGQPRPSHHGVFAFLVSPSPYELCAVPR
Sequence of CYP1A2 (P05177 whole entry, species assumed): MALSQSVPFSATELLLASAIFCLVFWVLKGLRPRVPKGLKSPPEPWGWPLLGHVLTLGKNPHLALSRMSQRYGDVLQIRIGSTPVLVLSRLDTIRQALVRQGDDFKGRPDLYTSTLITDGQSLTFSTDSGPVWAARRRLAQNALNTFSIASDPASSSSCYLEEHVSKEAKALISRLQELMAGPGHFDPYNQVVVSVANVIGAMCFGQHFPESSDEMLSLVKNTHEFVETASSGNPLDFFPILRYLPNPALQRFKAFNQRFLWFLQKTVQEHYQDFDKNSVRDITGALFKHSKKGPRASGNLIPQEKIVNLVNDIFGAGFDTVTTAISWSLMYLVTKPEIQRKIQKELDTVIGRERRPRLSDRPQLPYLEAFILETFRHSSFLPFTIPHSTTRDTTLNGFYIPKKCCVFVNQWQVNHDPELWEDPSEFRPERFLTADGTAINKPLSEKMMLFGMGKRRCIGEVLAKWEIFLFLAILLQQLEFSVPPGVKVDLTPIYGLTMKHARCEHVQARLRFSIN

O=C(NO)c1ccc(Cn2cc(-c3ccc(CN4CCCC4)cc3)nn2)cc1 [FNDR-20123]
half-life ([1]; im, intramuscular): 8.72 h | half-life ([1]; po): 2 h | half-life ([1]; sc, subcutaneous): 9.21 h | AUC(0-t) ([1]; im, intramuscular, 50 mg/Kg): 7220 ng·h/mL | Cmax ([1]; im, intramuscular, 50 mg/Kg): 15700 ng/mL | Tmax ([1]; im, intramuscular, 50 mg/Kg): 0.08 h | AUC(0-t) ([1]; sc, subcutaneous, 50 mg/Kg): 11000 ng·h/mL | Cmax ([1]; sc, subcutaneous, 50 mg/Kg): 14000 ng/mL | Tmax ([1]; sc, subcutaneous, 50 mg/Kg): 0.08 h | AUC(0-t) ([1]; oral, 50 mg/Kg): 327 ng·h/mL | Cmax ([1]; oral, 50 mg/Kg): 184 ng/mL | Tmax ([1]; oral, 50 mg/Kg): 1 h | t1/2 ([1]; oral, 50 mg/Kg): 2.02 h | Microsomal stability (% remaining at 120 min) (Microsomal stability [2]): 74.56% | remaining at 2 h, 10 µM (Microsomal stability [2]; rat, liver microsomes, read-out: Microsomal stability (% remaining at 120 min)): > 75% | IC50 (CYP 3A4): 27000 nM | Reduction of parasitaemia ([3]; dosed orally and subcutaneously): reduce parasitaemia significantly | Parasitaemia after 4 days of administration ([3]; 50 mg/kg bw): 0.12% | Parasitaemia after 4 days of administration ([3]; 100 mg/kg bw): 0.19% | Parasitaemia ([3]; 10 mg/kg bw for 4 days): 6.5% | Parasitaemia ([3]; 50 mg/kg bw for 4 days): 2.57% | IC50 (CYP2C9): > 60000 nM | IC50 (male gametocytes): 190 nM | fraction unbound (Plasma protein binding [4]): > 0.8 | fraction unbound (Plasma protein binding [5]): > 0.7 | IC50 ([6]; read-out: Anti-malarial IC50): 40 nM | IC50 ([6]; read-out: Anti-malarial activity Asexual Blood Stage IC50): 42 nM | Microsomal stability (% remaining at 120 min) (Microsomal stability [7]): 85.31% | remaining at 2 h, 10 µM (Microsomal stability [7]; human, liver microsomes, read-out: Microsomal stability (% remaining at 120 min)): > 75% | IC50 (CYP1A2): > 60000 nM | remaining at 4 h (in vitro): 98.9% | IC50 (CYP 2D6): 28000 nM | IC50 [8]: 20.9 nM
